{"source": "patent US20190231757A1", "about": "“COMBINATION OF SPLEEN TYROSINE KINASE INHIBITORS AND OTHER THERAPEUTIC AGENTS” (Takeda Pharmaceutical Company Limited, priority 2016, published 2019)", "key": {"[1]": {"system": "OCI-Ly10 human lymphoma xenografts", "assay": "Antitumor activity in SCID mice bearing OCI-Ly10 human lymphoma xenografts, lenalidomide combination (Example 10)", "format": "in vivo, mouse", "conditions": "alone or combined"}, "[2]": {"conditions": "Day 0 to Day 21; Compound A 60 mg/kg; lenalidomide 10 mg/kg; alone or combined"}, "TMD8 DLBCL xenografts": {"system": "TMD8 DLBCL xenografts", "assay": "Antitumor activity in CB17 SCID mice bearing TMD8 DLBCL xenografts, bendamustine combination (Example 3)", "format": "in vivo, mouse", "conditions": "bendamustine 1 mg/kg IV BIW, alone or combined, Day 14"}, "Ly19 xenografts": {"system": "Ly19 xenografts", "assay": "Antitumor activity in SCID mice bearing Ly19 xenografts, bendamustine combination (Example 4)", "format": "in vivo, mouse", "conditions": "for Mean Tumor Volume (mm^3) ± SEM at Day 14 / TGI (%): Day 14; for dAUC: vs vehicle"}, "[3]": {"system": "OCI-Ly10 human DLBCL xenografts", "assay": "Antitumor activity in SCID mice bearing OCI-Ly10 human DLBCL xenografts, ibrutinib or bendamustine combination (Example 5)", "format": "in vivo, mouse", "conditions": "Day 21, Compound A 60 mg/kg PO QD, ibrutinib 6 mg/kg PO QD, bendamustine 1 mg/kg IV BIW (6 doses), alone or combined with Compound A"}, "[4]": {"system": "OCI-Ly10 human lymphoma xenografts", "assay": "Antitumor activity in SCID mice bearing OCI-Ly10 human lymphoma xenografts, bendamustine and rituximab (Example 6)", "format": "in vivo, mouse", "conditions": "Day 21; Compound A 30 mg/kg PO QD x21; bendamustine 1 mg/kg IV BIW; rituximab 1 mg/kg IV QW x3; alone or combined"}, "[5]": {"conditions": "Day 0 to Day 21; Compound A 30 mg/kg; bendamustine 1 mg/kg; rituximab 1 mg/kg; alone or combined"}, "[6]": {"assay": "Body weight and tolerability, TMD8 bendamustine study (Example 3)", "conditions": "Compound A 60 mg/kg PO QD 14 d, alone or combined"}, "[7]": {"assay": "Body weight and tolerability, Ly19 bendamustine study (Example 4)", "conditions": "for body weight Change (%), Day 3: Day 3 vs Day 0; for body weight Change (%), Day 7: Day 7 vs Day 0; for body weight Change (%), Day 10: Day 10 vs Day 0; for body weight Change (%), Day 14: Day 14 vs Day 0"}, "[8]": {"conditions": "Compound A 60 mg/kg PO QD x14, bendamustine 1.0 mg/kg IV BIW x2, alone or combined"}, "[9]": {"conditions": "bendamustine 2.0 mg/kg IV BIW x2, alone or with Compound A 60 mg/kg PO QD x14"}, "[10]": {"conditions": "Compound A 60 mg/kg, bendamustine 1.0 mg/kg, alone or combined"}, "[11]": {"conditions": "bendamustine 2.0 mg/kg, alone or with Compound A 60 mg/kg"}}}
{"smiles": "Nc1cccc2c1CN(C1CCC(=O)NC1=O)C2=O", "note": "(centres unmarked) [lenalidomide]", "values": [{"measurement": "TGI", "setting": "[1]; Day 21, Compound A 60 mg/kg PO QD x21, lenalidomide 10 mg/kg PO QD x21", "value": 21.1, "unit": "%"}, {"measurement": "ΔAUC", "setting": "[1]; vs vehicle, Compound A 60 mg/kg, lenalidomide 10 mg/kg", "value": "15.2 (p = 0.014)"}, {"measurement": "Mean maximum % BWL", "setting": "[2]", "value": 0, "unit": "%"}]}
{"smiles": "Cn1c(CCCC(=O)O)nc2cc(N(CCCl)CCCl)ccc21", "note": "[bendamustine]", "values": [{"measurement": "Mean Tumor Volume (mm^3) ± SEM", "setting": "TMD8 DLBCL xenografts; Compound A 60 mg/kg PO QD 14 d", "value": "1,529.2 ± 275.9 mm^3"}, {"measurement": "T/C", "setting": "TMD8 DLBCL xenografts; Compound A 60 mg/kg PO QD", "value": 0.87}, {"measurement": "TGI (%)", "setting": "TMD8 DLBCL xenografts; Compound A 60 mg/kg PO QD", "value": 13.4, "unit": "%"}, {"measurement": "Mean Tumor Volume (mm^3) ± SEM at Day 14", "setting": "Ly19 xenografts; [8]", "value": "2092.9 ± 175.8", "unit": "mm^3"}, {"measurement": "TGI (%)", "setting": "Ly19 xenografts; [8]", "value": 16.2, "unit": "%"}, {"measurement": "Mean Tumor Volume (mm^3) ± SEM at Day 14", "setting": "Ly19 xenografts; [9]", "value": "2029.8 ± 248.8", "unit": "mm^3"}, {"measurement": "TGI (%)", "setting": "Ly19 xenografts; [9]", "value": 18.7, "unit": "%"}, {"measurement": "dAUC", "setting": "Ly19 xenografts; [10]", "value": 10.9}, {"measurement": "dAUC", "setting": "Ly19 xenografts; [11]", "value": 11.9}, {"measurement": "TGI", "setting": "[3]", "value": 43.7, "unit": "%"}, {"measurement": "TGI", "setting": "[3]; listed as Bendamustine", "value": 43.7, "unit": "%"}, {"measurement": "TGI", "setting": "[4]", "value": 49.7, "unit": "%"}, {"measurement": "Maximum mean % BWL", "setting": "[5]", "value": 0, "unit": "%"}, {"measurement": "% BW Change (Day Maximum)", "setting": "[6]; bendamustine 1 mg/kg IV BIW 14 d, maximum change within treatment period", "value": "13.1 (14) %"}, {"measurement": "Number of animals removed", "setting": "[6]; bendamustine 1 mg/kg IV BIW", "value": 0}, {"measurement": "animal body weight (g), Day 0", "setting": "[7]; Day 0, Compound A 60 mg/kg PO QD x14, bendamustine 1.0 mg/kg IV BIW x2, alone or combined, mean of 8", "value": 19.7, "unit": "g"}, {"measurement": "animal body weight (g), Day 3", "setting": "[7]; Day 3, Compound A 60 mg/kg, bendamustine 1.0 mg/kg, alone or combined", "value": 19.9, "unit": "g"}, {"measurement": "body weight Change (%), Day 3", "setting": "[7]; [10]", "value": "+0.9%"}, {"measurement": "body weight Change (%), Day 3", "setting": "[7]; [11]", "value": "+2.0%"}, {"measurement": "body weight Change (%), Day 7", "setting": "[7]; [10]", "value": "+3.7%"}, {"measurement": "body weight Change (%), Day 7", "setting": "[7]; [11]", "value": "+3.2%"}, {"measurement": "animal body weight (g), Day 10", "setting": "[7]; [10]", "value": 21.2, "unit": "g"}, {"measurement": "animal body weight (g), Day 10", "setting": "[7]; [11]", "value": 21.7, "unit": "g"}, {"measurement": "body weight Change (%), Day 10", "setting": "[7]; [10]", "value": "+7.7%"}, {"measurement": "body weight Change (%), Day 10", "setting": "[7]; [11]", "value": "+6.2%"}, {"measurement": "animal body weight (g), Day 14", "setting": "[7]; [10]", "value": 22.3, "unit": "g"}, {"measurement": "animal body weight (g), Day 14", "setting": "[7]; [11]", "value": 22.6, "unit": "g"}, {"measurement": "body weight Change (%), Day 14", "setting": "[7]; [10]", "value": "+13.1%"}, {"measurement": "body weight Change (%), Day 14", "setting": "[7]; [11]", "value": "+10.8%"}]}
